Test results reported in ChEMBL document CHEMBL6096658, “Discovery of Potent, Highly Selective, and Efficacious SMARCA2 Degraders” (J Med Chem, 2025).

What was measured:
[1] = molecular target: SWI/SNF-related matrix-associated actin-dependent regulator of chromatin subfamily A member 4 (Homo sapiens, UniProt P51532); test: Binding affinity to SMARCA4 (unknown origin) incubated for 30 mins by HTRF assay
[2] = molecular target: SWI/SNF-related matrix-associated actin-dependent regulator of chromatin subfamily A member 2 (Homo sapiens, UniProt P51531); test: Binding affinity to SMARCA2 (unknown origin) incubated for 30 mins by HTRF assay
Chain of SWI/SNF-related matrix-associated actin-dependent regulator of chromatin subfamily A member 2 (P51531 whole entry): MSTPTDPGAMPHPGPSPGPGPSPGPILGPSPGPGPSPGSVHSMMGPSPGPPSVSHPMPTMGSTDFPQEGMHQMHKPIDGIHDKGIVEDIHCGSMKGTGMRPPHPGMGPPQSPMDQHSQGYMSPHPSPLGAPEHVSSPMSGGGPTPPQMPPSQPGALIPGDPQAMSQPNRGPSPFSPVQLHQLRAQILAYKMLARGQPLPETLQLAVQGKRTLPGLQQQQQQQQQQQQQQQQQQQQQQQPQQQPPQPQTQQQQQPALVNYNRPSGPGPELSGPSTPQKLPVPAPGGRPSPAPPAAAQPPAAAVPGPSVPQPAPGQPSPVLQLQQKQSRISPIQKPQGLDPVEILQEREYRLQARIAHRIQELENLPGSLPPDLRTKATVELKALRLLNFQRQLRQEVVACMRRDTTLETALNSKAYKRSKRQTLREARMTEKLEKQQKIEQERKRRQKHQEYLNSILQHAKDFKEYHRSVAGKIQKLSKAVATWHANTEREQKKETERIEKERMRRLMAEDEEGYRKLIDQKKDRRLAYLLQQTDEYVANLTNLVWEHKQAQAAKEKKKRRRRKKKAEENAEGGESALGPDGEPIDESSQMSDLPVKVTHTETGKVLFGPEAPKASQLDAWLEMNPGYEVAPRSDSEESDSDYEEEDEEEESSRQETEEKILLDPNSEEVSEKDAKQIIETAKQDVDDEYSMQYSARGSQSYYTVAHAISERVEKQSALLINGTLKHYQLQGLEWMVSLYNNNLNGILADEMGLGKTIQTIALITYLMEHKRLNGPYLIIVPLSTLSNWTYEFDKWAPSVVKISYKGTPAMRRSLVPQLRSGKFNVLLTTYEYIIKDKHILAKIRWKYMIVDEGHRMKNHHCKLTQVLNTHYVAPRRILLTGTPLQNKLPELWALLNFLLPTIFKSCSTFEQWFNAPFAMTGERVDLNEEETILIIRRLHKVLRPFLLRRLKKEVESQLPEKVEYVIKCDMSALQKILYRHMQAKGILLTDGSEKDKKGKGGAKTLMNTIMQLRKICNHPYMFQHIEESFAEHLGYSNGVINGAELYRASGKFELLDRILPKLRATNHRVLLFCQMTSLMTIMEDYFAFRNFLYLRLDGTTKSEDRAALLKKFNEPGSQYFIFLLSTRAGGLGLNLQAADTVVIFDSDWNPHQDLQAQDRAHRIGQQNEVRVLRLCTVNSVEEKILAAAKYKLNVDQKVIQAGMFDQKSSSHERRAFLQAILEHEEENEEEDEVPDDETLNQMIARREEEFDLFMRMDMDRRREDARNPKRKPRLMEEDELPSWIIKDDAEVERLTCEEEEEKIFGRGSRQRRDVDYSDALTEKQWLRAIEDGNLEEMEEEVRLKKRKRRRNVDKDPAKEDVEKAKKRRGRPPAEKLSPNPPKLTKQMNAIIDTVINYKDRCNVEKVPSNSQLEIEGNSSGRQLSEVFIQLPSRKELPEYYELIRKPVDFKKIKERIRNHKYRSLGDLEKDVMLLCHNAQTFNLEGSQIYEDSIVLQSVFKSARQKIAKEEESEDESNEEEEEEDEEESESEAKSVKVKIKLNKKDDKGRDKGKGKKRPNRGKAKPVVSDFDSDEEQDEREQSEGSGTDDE

[3] = Selectivity ratio of DC50 for PROTAC activity at VHL/SMARCA4 in human HT-1080 cells (unknown origin) to DC50 for VHL/SMARCA2 in human HT-1080 cells (unknown origin); type: cell-based
[4] = molecular target: T1, von Hippel-Lindau disease tumor suppressor/SWI/SNF-related matrix-associated actin-dependent regulator of chromatin subfamily A member 4 (Homo sapiens, UniProt P51532+P40337); test: PROTAC activity at VHL/SMARCA4 in human HT-1080 cells assessed as induction of SMARCA4 degradation incubated for 24 hrs by Nano-Glo HiBiT Lytic Detection Assay; type: cell-based
Target sequence in this assay (P51532 whole entry): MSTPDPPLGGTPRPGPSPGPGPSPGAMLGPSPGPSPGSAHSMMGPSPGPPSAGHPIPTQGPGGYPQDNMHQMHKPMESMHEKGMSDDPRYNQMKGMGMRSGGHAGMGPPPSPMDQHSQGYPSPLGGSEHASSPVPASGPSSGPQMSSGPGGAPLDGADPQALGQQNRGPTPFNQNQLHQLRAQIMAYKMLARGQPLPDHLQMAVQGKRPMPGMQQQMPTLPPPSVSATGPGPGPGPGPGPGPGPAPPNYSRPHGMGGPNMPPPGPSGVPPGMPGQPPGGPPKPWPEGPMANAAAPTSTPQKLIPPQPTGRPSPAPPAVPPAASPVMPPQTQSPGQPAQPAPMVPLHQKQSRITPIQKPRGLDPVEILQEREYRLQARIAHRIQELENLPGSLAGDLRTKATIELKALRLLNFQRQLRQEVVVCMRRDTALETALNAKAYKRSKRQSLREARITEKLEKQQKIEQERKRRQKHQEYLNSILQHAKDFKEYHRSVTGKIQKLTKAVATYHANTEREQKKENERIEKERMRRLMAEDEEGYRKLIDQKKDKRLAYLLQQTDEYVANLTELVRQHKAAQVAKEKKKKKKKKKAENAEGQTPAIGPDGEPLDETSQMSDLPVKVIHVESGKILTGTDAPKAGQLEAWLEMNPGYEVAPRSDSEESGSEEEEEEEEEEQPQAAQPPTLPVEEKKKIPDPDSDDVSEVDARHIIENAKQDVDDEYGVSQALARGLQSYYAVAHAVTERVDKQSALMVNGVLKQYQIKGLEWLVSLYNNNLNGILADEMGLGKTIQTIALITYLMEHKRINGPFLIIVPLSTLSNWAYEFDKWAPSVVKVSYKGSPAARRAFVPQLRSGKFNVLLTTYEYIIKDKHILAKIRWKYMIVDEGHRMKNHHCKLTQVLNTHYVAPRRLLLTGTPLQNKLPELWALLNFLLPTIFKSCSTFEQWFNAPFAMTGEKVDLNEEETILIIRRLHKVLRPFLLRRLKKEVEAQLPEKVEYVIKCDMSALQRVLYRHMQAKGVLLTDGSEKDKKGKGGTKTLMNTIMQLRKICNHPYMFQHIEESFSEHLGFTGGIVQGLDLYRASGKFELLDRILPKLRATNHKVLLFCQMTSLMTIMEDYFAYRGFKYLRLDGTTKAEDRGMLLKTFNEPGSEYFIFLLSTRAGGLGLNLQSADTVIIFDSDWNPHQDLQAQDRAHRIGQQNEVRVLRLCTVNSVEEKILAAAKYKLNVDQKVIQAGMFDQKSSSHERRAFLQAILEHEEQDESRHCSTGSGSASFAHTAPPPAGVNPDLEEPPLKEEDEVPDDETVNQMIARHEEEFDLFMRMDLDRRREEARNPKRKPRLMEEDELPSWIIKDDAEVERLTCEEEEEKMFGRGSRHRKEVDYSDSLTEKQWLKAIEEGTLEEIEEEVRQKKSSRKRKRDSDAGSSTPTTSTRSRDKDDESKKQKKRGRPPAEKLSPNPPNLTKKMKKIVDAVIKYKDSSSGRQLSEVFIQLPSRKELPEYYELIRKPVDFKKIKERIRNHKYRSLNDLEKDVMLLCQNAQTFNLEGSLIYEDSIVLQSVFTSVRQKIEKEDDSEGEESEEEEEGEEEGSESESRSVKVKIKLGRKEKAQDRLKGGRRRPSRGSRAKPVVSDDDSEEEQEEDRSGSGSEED
Target sequence in this assay (P40337 whole entry): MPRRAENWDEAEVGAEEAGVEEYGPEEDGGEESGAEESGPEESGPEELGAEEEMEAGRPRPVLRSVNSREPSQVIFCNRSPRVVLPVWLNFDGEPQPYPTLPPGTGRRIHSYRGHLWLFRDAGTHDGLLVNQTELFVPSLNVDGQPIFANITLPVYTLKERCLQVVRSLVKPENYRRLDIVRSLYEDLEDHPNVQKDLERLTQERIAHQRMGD

[5] = molecular target: T2, von Hippel-Lindau disease tumor suppressor/SWI/SNF-related matrix-associated actin-dependent regulator of chromatin subfamily A member 2 (Homo sapiens, UniProt P51531+P40337); test: PROTAC activity at VHL/SMARCA2 in human HT-1080 cells assessed as induction of SMARCA2 degradation by measuring maximum efficacy incubated for 6 hrs by Nano-Glo HiBiT Lytic Detection Assay relative to control; type: cell-based
Target sequence in this assay (P40337 whole entry, looked up): as the sequence (P40337 whole entry) above
Target sequence in this assay (P51531 whole entry, looked up): as the sequence (P51531 whole entry) above

[6] = molecular target: T1, von Hippel-Lindau disease tumor suppressor/SWI/SNF-related matrix-associated actin-dependent regulator of chromatin subfamily A member 4; test: PROTAC activity at VHL/SMARCA4 in human HT-1080 cells assessed as induction of SMARCA4 degradation by measuring maximum efficacy incubated for 6 hrs by Nano-Glo HiBiT Lytic Detection Assay relative to control; type: cell-based
Target sequence in this assay (P40337 whole entry, looked up): as the sequence (P40337 whole entry) above
Target sequence in this assay (P51532 whole entry, looked up): as the sequence (P51532 whole entry) above

[7] = molecular target: von Hippel-Lindau disease tumor suppressor (Homo sapiens, UniProt P40337); test: Binding affinity to VHL (unknown origin) incubated for 30 mins by HTRF assay
Chain of von Hippel-Lindau disease tumor suppressor (P40337 whole entry): as the sequence (P40337 whole entry) above

[8] = molecular target: T2, von Hippel-Lindau disease tumor suppressor/SWI/SNF-related matrix-associated actin-dependent regulator of chromatin subfamily A member 2; test: PROTAC activity at VHL/SMARCA2 in human HT-1080 cells assessed as induction of SMARCA2 degradation incubated for 24 hrs by Nano-Glo HiBiT Lytic Detection Assay; type: cell-based
Target sequence in this assay (P51531 whole entry): as the sequence (P51531 whole entry) above
Target sequence in this assay (P40337 whole entry): as the sequence (P40337 whole entry) above

[9] = molecular target: T2, von Hippel-Lindau disease tumor suppressor/SWI/SNF-related matrix-associated actin-dependent regulator of chromatin subfamily A member 2; test: Binding affinity to flag-tagged SMARCA2/VHL (unknown origin) assessed as ternary complex formation by measuring HTRF signal incubated for 120 mins by Envision reader analysis; type: protein assay
Target sequence in this assay (P40337 whole entry, looked up): as the sequence (P40337 whole entry) above
Target sequence in this assay (P51531 whole entry, looked up): as the sequence (P51531 whole entry) above

NCI-H838 = test: Antiproliferative activity against human NCI-H838 cells assessed as cell growth inhibition incubated for 6 days by Cell Titer Glo assay; type: functional; conditions: NCI-H838, 144 h, time 6 day
Calu-6 = test: Antiproliferative activity against human Calu-6 cells assessed as cell growth inhibition incubated for 6 days by Cell Titer Glo assay; type: functional; conditions: Calu-6, 144 h, time 6 day

Chain of SWI/SNF-related matrix-associated actin-dependent regulator of chromatin subfamily A member 4 (P51532 whole entry): as the sequence (P51532 whole entry) above

Row | SMILES | IC50 [1] | IC50 [2] | DC50 [4] | Emax [5] | Emax [6] | IC50 [7] | DC50 [8] | GI50 (NCI-H838) | GI50 (Calu-6) | Ratio [3] | Activity [9]
1 | Cc1ncsc1-c1ccc([C@H](C)NC(=O)[C@@H]2C[C@@H](O)CN2C(=O)[C@@H](c2cc(N3CCC(CN4CCC(c5ccc6c(c5)C(C)(C)c5nc(=O)c7c(Cl)cccc7n5-6)CC4)CC3)no2)C(C)C)cc1 | 27 nM | 16 nM | 3.9 nM | 98% |  | 6.4 nM | 0.61 nM |  |  |  | 
2 | Cc1ncsc1-c1ccc([C@H](C)NC(=O)[C@@H]2C[C@@H](O)CN2C(=O)[C@@H](c2cc(OCC3(CN4CCC(c5ccc6c(c5)C(C)(C)c5nc(=O)c7c(Cl)cccc7n5-6)CC4)CC3)no2)C(C)C)cc1 | 100 nM | 72 nM | 280 nM | 87% | 53% | 15 nM | 13 nM |  |  | 22 | 
3 | Cc1ncsc1-c1ccc([C@H](C)NC(=O)[C@@H]2C[C@@H](O)CN2C(=O)[C@@H](c2cc(CN3CCC(c4ccc5c(c4)C(C)(C)c4nc(=O)c6c(Cl)cccc6n4-5)CC3)no2)C(C)C)cc1 | 500 nM | 350 nM |  |  |  |  |  |  |  |  | 
4 | Cc1ncsc1-c1ccc([C@H](C)NC(=O)[C@@H]2C[C@@H](O)CN2C(=O)[C@@H](c2cc(OCCCCN3CCC(c4ccc5c(c4)C(C)(C)c4nc(=O)c6c(Cl)cccc6n4-5)CC3)no2)C(C)C)cc1 | 97 nM | 70 nM | 22 nM | 98% | 93% | 16 nM | 1.9 nM |  |  | 12 | 
5 | Cc1ncsc1-c1ccc([C@H](C)NC(=O)[C@@H]2C[C@@H](O)CN2C(=O)[C@@H](c2cc(N3CCC(CN4CCC(c5cccc6c5C(C)(C)c5nc(=O)c7c(Cl)cccc7n5-6)CC4)CC3)no2)C(C)C)cc1 | 83 nM | 150 nM | 35 nM | 94% | 84% | 15 nM | 4.4 nM |  |  | 8 | Active; Smarca2-Vhl Shows 30% Higher Auc Compared To Smarca4-Vhl Was Observed
6 | Cc1ncsc1-c1ccc([C@H](C)NC(=O)[C@@H]2C[C@@H](O)CN2C(=O)[C@@H](c2cc(OC3CCC(N4CCC(c5ccc6c(c5)C(C)(C)c5nc(=O)c7c(Cl)cccc7n5-6)CC4)CC3)no2)C(C)C)cc1 (some centres undefined) | 43 nM | 47 nM | 1.2 nM | 99% | 97% | 9.3 nM | 0.16 nM |  |  | 7.5 | 
7 | Cc1ncsc1-c1ccc([C@H](C)NC(=O)[C@@H]2C[C@@H](O)CN2C(=O)[C@@H](c2cc(OCCN3CCC(c4ccc5c(c4)C(C)(C)c4nc(=O)c6c(Cl)cccc6n4-5)CC3)no2)C(C)C)cc1 | 79 nM | 88 nM | 31 nM | 96% | 80% | 22 nM | 2.1 nM |  |  | 15 | 
8 | Cc1ncsc1-c1ccc([C@H](C)NC(=O)[C@@H]2C[C@@H](O)CN2C(=O)[C@@H](NC(=O)[C@H]2CC[C@H](CN3CCC(c4ccc5c(c4)-n4c(nc(=O)c6c(Br)cccc64)C5(C)C)CC3)CC2)C(C)(C)C)cc1 |  |  | > 1000 nM | 93% | 34% | 280 nM | 6.4 nM | 40 nM | > 1000 nM | > 100 | 
9 | Cc1ncsc1-c1ccc([C@H](C)NC(=O)[C@@H]2C[C@@H](O)CN2C(=O)[C@@H](c2cc(OCCCN3CCC(c4ccc5c(c4)C(C)(C)c4nc(=O)c6c(Cl)cccc6n4-5)CC3)no2)C(C)C)cc1 | 83 nM | 60 nM | 26 nM | 98% | 92% | 17 nM | 1.4 nM |  |  | 18 | 

More lines, main results first:

Row | IC50 [1] | IC50 [2] | DC50 [4] | Emax [5] | Emax [6] | IC50 [7] | DC50 [8] | GI50 (NCI-H838) | GI50 (Calu-6) | SMILES | Ratio [3] | Activity [9]
10 | 9100 nM | 3500 nM |  |  |  |  |  |  |  | O=c1nc2n(c3cccc(Cl)c13)-c1ccc(C3CCNCC3)cc1C21CCNCC1 |  | 
11 | 110 nM | 34 nM | 12 nM | 97% | 92% | 6.2 nM | 1.7 nM |  |  | Cc1ncsc1-c1ccc([C@H](C)NC(=O)[C@@H]2C[C@@H](O)CN2C(=O)[C@@H](c2cc(OCC(C)CN3CCC(c4ccc5c(c4)-n4c(nc(=O)c6c(Cl)cccc64)C5(C)C)CC3)no2)C(C)C)cc1 (some centres undefined) | 7 | 
12 | 170 nM | 68 nM |  |  |  |  |  |  |  | CC1(C)c2c(C3CCNCC3)cccc2-n2c1nc(=O)c1c(Cl)cccc12 |  | 
13 | 5.5 nM | 2.8 nM |  |  |  |  |  |  |  | CC1(C)c2cc(C3CCNCC3)ccc2-n2c1nc(=O)c1c(Br)cccc12 |  | 
14 | 40 nM | 17 nM |  |  |  |  |  |  |  | O=c1nc2n(c3cccc(Cl)c13)-c1cc(C3CCNCC3)ccc1C21CCCCC1 |  | 
15 |  |  | > 1000 nM | 92% | 25% | 370 nM | 10 nM |  |  | Cc1ncsc1-c1ccc([C@H](C)NC(=O)[C@@H]2C[C@@H](O)CN2C(=O)[C@@H](NC(=O)[C@H]2CC[C@H](CN3CCC(c4ccc5c(c4)-n4c(nc(=O)c6c(Cl)cccc64)C5(C)C)CC3)CC2)C(C)(C)C)cc1 | > 100 | 
16 | 24 nM | 13 nM |  |  |  |  |  |  |  | O=c1nc2n(c3cccc(Cl)c13)-c1ccc(C3CCNCC3)cc1C21CCCC1 |  | 
17 | 36 nM | 12 nM |  |  |  |  |  |  |  | CC1(C)c2cc(C3CCNCC3)ccc2-n2c1nc(=O)c1c(Cl)cccc12 |  | 
18 | 10 nM | 4.6 nM |  |  |  |  |  |  |  | O=c1nc2n(c3cccc(Br)c13)-c1ccc(C3CCNCC3)cc1C21CCCCC1 |  | 
19 | 18 nM | 8.8 nM |  |  |  |  |  |  |  | O=c1nc2n(c3cccc(Cl)c13)-c1ccc(C3CCNCC3)cc1C21CCCCC1 |  | 
20 | 38 nM | 15 nM |  |  |  |  |  |  |  | CC1(C)c2ccc(C3CCNCC3)cc2-n2c1nc(=O)c1c(Cl)cccc12 |  | 
21 | 150 nM | 53 nM |  |  |  |  |  |  |  | O=c1nc2n(c3cccc(Cl)c13)-c1ccc(C3CCNCC3)cc1C21CCCCCC1 |  | 
